{"source": "ChEMBL document CHEMBL1764965", "about": "“Contribution of cinnamic acid analogues in rosmarinic acid to inhibition of snake venom induced hemorrhage” (Bioorg Med Chem, 2011)", "data": [{"organism": "Mus musculus", "experiment": "cells", "assay_type": "functional, organism-based, ddY", "details": "not given; call rule not given here", "values": [{"smiles": "COc1cc(CC(O)C(=O)O)ccc1O", "note": "(stereo unspecified)", "IC50": "Not Active"}, {"smiles": "O=C(O)/C=C\\c1ccc(O)c(O)c1O", "IC50": "Not Active"}, {"smiles": "O=C(O)/C=C\\c1cc(O)c(O)cc1O", "IC50": "Not Active"}, {"smiles": "O=C(O)/C=C\\c1cc(O)c(O)c(O)c1", "IC50": "Not Active"}, {"smiles": "O=C(CCc1ccc(O)c(O)c1)O[C@H](Cc1ccc(O)c(O)c1)C(=O)O", "IC50": "Not Active"}, {"smiles": "COC(=O)[C@@H](Cc1ccc(O)c(O)c1)OC(=O)C=Cc1ccc(O)c(O)c1", "note": "(mixture of isomers) [ROSMARINIC ACID METHYL ESTER]", "IC50": "Not Active"}, {"smiles": "O=C/C=C/c1ccccc1", "note": "[CINNAMALDEHYDE]", "IC50": "Not Active"}, {"smiles": "OC/C=C/c1ccccc1", "note": "[CINNAMIC ALCOHOL]", "IC50": "Not Active"}, {"smiles": "O=C(O)CCc1ccc(O)c(O)c1", "note": "[DIHYDROCAFFEIC ACID]", "IC50": "Not Active"}, {"smiles": "COC(=O)/C=C/c1ccccc1", "note": "[E-METHYL CINNAMATE]", "IC50": "Not Active"}, {"smiles": "COC(=O)/C=C/c1ccc(O)c(O)c1", "note": "[METHYLCAFFEATE]", "IC50": "Not Active"}]}, {"organism": "Mus musculus", "experiment": "cells", "assay_type": "functional, organism-based, ddY", "details": "Mus musculus, ddY; read-out: IC50", "units": {"IC50": "nM"}, "values": [{"smiles": "O=C(O)/C=C/c1ccc(O)cc1O", "IC50": 210}, {"smiles": "O=C(O)/C=C/c1cc(O)c(O)c(O)c1", "IC50": 180}, {"smiles": "O=C(O)/C=C/c1cccc(O)c1", "IC50": 180}, {"smiles": "O=C(C=Cc1ccc(O)c(O)c1)O[C@H](Cc1ccc(O)c(O)c1)C(=O)O", "note": "(mixture of isomers) [(E/Z)-ROSMARINIC ACID]", "IC50": 600}, {"smiles": "O=C(O)/C=C/c1ccc(O)c(O)c1", "note": "[CAFFEIC ACID]", "IC50": 190}, {"smiles": "O=C(/C=C/c1ccc(O)c(O)c1)O[C@@H]1C[C@](O)(C(=O)O)C[C@@H](O)[C@H]1O", "note": "[CHLOROGENIC ACID]", "IC50": 200}, {"smiles": "O=C(O)/C=C/c1ccccc1", "note": "[CINNAMIC ACID]", "IC50": 180}, {"smiles": "O=C(O)/C=C/c1ccc(O)cc1", "note": "[COUMARIC ACID]", "IC50": 190}, {"smiles": "C/C=C/C(=O)O", "note": "[CROTONIC ACID]", "IC50": 220}, {"smiles": "COc1cc(/C=C/C(=O)O)ccc1O", "note": "[FERULATE]", "IC50": 200}, {"smiles": "O=C(O)/C=C/C=C/c1ccccc1", "note": "[JUAREZIC ACID]", "IC50": 220}, {"smiles": "COc1ccc(/C=C/C(=O)O)cc1OC", "note": "[O,O'-DIMETHYLCAFFEIC ACID]", "IC50": 240}, {"smiles": "O=C(O)/C=C/c1ccccc1O", "note": "[O-COUMARIC ACID]", "IC50": 190}, {"smiles": "O=C(/C=C/c1ccc(O)c(O)c1)O[C@H](Cc1ccc(O)c(O)c1)C(=O)O", "note": "[ROSMARINIC ACID]", "IC50": 150}, {"smiles": "C/C=C/C=C/C(=O)O", "note": "[SORBIC ACID]", "IC50": 210}]}]}
